Experiments:
enkephalinase A = molecular target: T1, enkephalinase A (Rattus norvegicus, UniProt P07861); test: Enkephalinase A inhibition, radiometric 3H-Met5-ENK degradation assay with TLC separation; assay type: biochemical, Sprague-Dawley rats; details: rat brain membrane enzyme, 40 nM 3H-Met5-ENK, 90 min at 37° C.; N.A. = No activity at <10^5 nM
T1 construct: from tissue; host or cells: Sprague-Dawley rat brain minus cerebellum; membrane pellet solubilised in 1% Triton X-100, DEAE Sephacel fraction eluting at 120-200 ml
T1 sequence (P07861 1-750): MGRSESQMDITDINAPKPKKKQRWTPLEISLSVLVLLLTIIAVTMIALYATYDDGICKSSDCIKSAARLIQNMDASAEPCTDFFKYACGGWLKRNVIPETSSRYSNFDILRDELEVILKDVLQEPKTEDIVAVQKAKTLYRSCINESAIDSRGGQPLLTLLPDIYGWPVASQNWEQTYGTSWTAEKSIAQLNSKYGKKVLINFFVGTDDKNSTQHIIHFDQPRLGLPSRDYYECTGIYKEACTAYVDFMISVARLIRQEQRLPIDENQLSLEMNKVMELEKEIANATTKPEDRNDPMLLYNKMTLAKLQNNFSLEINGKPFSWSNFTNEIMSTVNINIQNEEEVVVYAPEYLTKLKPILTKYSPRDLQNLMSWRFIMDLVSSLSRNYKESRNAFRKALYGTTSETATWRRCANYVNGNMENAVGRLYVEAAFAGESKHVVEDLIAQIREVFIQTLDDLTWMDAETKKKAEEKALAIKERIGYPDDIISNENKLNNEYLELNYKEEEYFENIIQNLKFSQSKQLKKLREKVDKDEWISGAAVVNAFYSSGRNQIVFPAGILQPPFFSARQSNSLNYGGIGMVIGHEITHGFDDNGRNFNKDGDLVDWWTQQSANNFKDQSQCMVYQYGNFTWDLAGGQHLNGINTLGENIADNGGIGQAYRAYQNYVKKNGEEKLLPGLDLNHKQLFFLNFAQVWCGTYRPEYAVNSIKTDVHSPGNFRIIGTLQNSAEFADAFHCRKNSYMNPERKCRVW
Description: The following test procedure was utilized to assay the enkephalinase A inhibition of the compounds having structural formula I.
Enzyme activity was separated by taking the brain tissue (minus cerebellum) from Sprague-Dawley rats and homogenizing it in 30 volumes of 50 mM Tris buffer, pH 7.4, using a Brinkmann Polytron. The resulting homogenate is centrifuged at 50,000 xg for 15 min. The pellet, constituting the membrane bound enzyme material, is washed by resuspending it in Tris and re-centrifuging it 4 times.
Following washing, solubilization of the membrane pellet is achieved by incubating it for 45 min at 37° C. in the presence of 15 volumes (based on initial brain weight) of 50 mM Tris-1% Triton X-100 buffer, pH 7.4. […] Material is eluted from the column using a 1 liter linear NaCl gradient running from 0.0 to 0.4 M. Effluent is collected in 7 ml fractions, each of which is assayed for enkephalin degrading activity. Under these conditions Enk'ase A activity is found to elute between 120 and 200 ml. followed by AP activity (260 to 400 ml) and finally by Enk'ase B activity between 420 and 450 ml.
Enkephalin degrading activity is monitored using a radiometric assay. The substrate is ^3 H-Met^5 -ENK (50.1 Ci/mmol, New England Nuclear) diluted in 0.05 M Tris buffer, pH 7.4, such that the final reaction mixture concentration is 40 nM. Total reaction mixture volume including enzyme and substrate is 250 μl. Incubation is carried out for 90 min at 37° C. To stop the reaction, tubes are transferred to a boiling water bath for 15 min.
Assay products are separated from one another using thin layer chromatography. […] Total running time is approximately 17 hours. TLC tanks are gassed with nitrogen prior to starting the run. Following the run, markers are visualized with ninhydrin spray. These spots, along with remaining plate regions, are cut from the plate and the radioactivity corresponding to each monitored using liquid scintillation counting. IC50 's are determined using linear regression techniques.

Male CFl mice = test: Potentiation of the analgesic effects of (DAla2-Met5)-enkephalinamide (DAEAM), tail-flick test; assay type: in vivo; details: mouse tail-flick, DAEAM icv, latency 30 min later, dose at which half the test animals displayed analgesia
Description: Male CFl mice (19-23 g) from Charles River Breeding Labs, Mass., are used (N=10/dose or dose combination). Tail-flick testing is done similar to that of Dewey and Harris, Methods in Narcotic Research, Eds., S. Ehrenpreis and A. Neidle, pp. 101-109, Marcel Dekker, Inc., New York, 1975 using a radiant heat noxious stimulus. Following determination of control latencies (typically 2-3 sec), the mice are first injected (sc or po) with either vehicle or drug and after an appropriate interval injected intracerebroventricularly (icv) with either vehicle (10 μl of saline) or DAEAM according to Haley and McCormick, Br., J. Pharmacol., 12,12 (1957). Tail-flick latencies are re-determined 30 min later, as this has previously been determined to be the time of peak analgesia for DAEAM, a cut-off of 10 sec is employed.

| SMILES | IC50 (enkephalinase A) [nM] | DAEAM Potentiation ED50 (route) (Male CFl mice; sc) [mg/k] | DAEAM Potentiation ED50 (route) (Male CFl mice; po) |
| --- | --- | --- | --- |
| O=C(O)CCNC(=O)[C@H](Cc1ccccc1)N[C@@H](Cc1ccc(-c2ccccc2)cc1)C(=O)O [AC, N-[N-[L-1-carboxy-2-(4-phenyl)phenylethyl]-L-phenylalanyl]-β-alanine] | 2.5 |  |  |
| CC(C)C[C@H](N[C@H](Cc1ccccc1)C(=O)O)C(=O)N[C@@H](Cc1ccccc1)C(=O)O [AG, N-[N-[(D-1-carboxy-2-phenylethyl)]-L-leucyl]-L-phenylalanine] | 12 |  |  |
| CC(C)(C)OC(=O)N[C@@H](CNC(=O)[C@H](Cc1ccccc1)N[C@@H](Cc1ccccc1)C(=O)O)C(=O)O [AL, N-[N-(L-1-carboxy-2-phenylethyl)-L-phenylalanyl]-S-2-[N[(1,1-dimethylethoxy)carbonyl]amino]-β-alanine] | 4.5 |  |  |
| O=C(O)CCNC(=O)[C@H](Cc1ccccc1)N[C@@H](Cc1ccccc1)C(=O)O [K, N-[N-[(L-1-carboxy-2-phenylethyl)]-L-phenylalanyl]-β-alanine] | 15 | 17 |  |
| CC(C)(C)C(=O)OCOC(=O)CCNC(=O)[C@H](Cc1ccccc1)N[C@@H](Cc1ccccc1)C(=O)OCc1ccccc1 [L] |  |  | 155 mg/k |
| CC(C)(C)C(=O)OCOC(=O)CCNC(=O)[C@H](Cc1ccccc1)N[C@@H](Cc1ccccc1)C(=O)OCOC(=O)C(C)(C)C [M] |  |  | 37 mg/k |
| O=C(CCNC(=O)[C@H](Cc1ccccc1)N[C@@H](Cc1ccccc1)C(=O)O)OCCOc1ccccc1 [P, N-[N-[(L-1-carboxy-2-phenylethyl)]-L-phenylalanyl]-β-alanine, 2-phenoxyethyl ester] | 230 |  | 30-60 mg/k |

From patent US4610816A (Schering Corporation, priority 1981, dated 1986)
